Here are results for four compounds from patent US20240180883A1, “TREATMENT OF MIGRAINE” (Allergan Pharmaceuticals International Limited, priority 2020, published 2024).

For series [1] the following is noted: cited from earlier work; for liver enzyme levels: clinical trials.
Another series is described as follows: Study B: adverse events. The note with it: Treatment B: rifampin 600 mg once daily for 5 days, fasted.

Take `O=C(CN1C(=O)C2(CCCC2)NC[C@H]1c1cc(F)cc(F)c1)Nc1ccc2c(c1)C[C@@]1(C2)C(=O)Nc2ncccc21` [MK-3207]: the liver enzyme levels result in series [1] is “elevated liver enzyme levels were observed”.

Turning to `NCCCC[C@H](NC(=O)[C@@H](Cc1cc(Br)c(O)c(Br)c1)NC(=O)N1CCC(N2Cc3ccccc3NC2=O)CC1)C(=O)N1CCN(c2ccncc2)CC1` [olcegepant], in series [1] (IV formulation), the “efficacy in the acute treatment of migraine” value is listed as “efficacious in the acute treatment of migraine”. Also, the oral bioavailability entry in series [1] (human, in vivo, po) was “not orally bioavailable”.

For the compound `CO[C@H]1/C=C/O[C@@]2(C)Oc3c(C)c(O)c4c(O)c(c(/C=N/N5CCN(C)CC5)c(O)c4c3C2=O)NC(=O)/C(C)=C\C=C\[C@H](C)[C@H](O)[C@@H](C)[C@@H](O)[C@@H](C)[C@H](OC(C)=O)[C@@H]1C` [rifampin, reference compound], in the series “Study B: adverse events”, the “AEs leading to discontinuation” value is on record as 0 n (%), the “Any AE” value is reported as 1 (3.3) n (%), the Deaths is reported as 0 n (%) and the “Dry Mouth” value is given as 0 n (%). Besides, in “Study B: adverse events”, the Flatulence is reported as 0 n (%), the “Gastrointestinal Disorders” value was 0 n (%), the Headache is listed as 1 (3.3) n (%) and the Nausea is given as 0 n (%). In the series “Study B: adverse events”, the “Nervous System Disorders” value is 1 (3.3) n (%), the SAEs is listed as 0 n (%), the TEAEs is reported as 1 (3.3) n (%) and the “Treatment related TEAEs” value was 1 (3.3) n (%).

Take `O=C(N[C@@H]1CC[C@@H](c2cccc(F)c2F)CN(CC(F)(F)F)C1=O)N1CCC(n2c(=O)[nH]c3ncccc32)CC1` [telcagepant]: the liver enzyme levels result in series [1] is listed as “elevated liver enzyme levels were observed”.
